The record followed here is patent US20210323940A1 (OCEANS LTD., priority 2018, published 2021).

Common to all, as to format: cell-based, human
The subject of one data set is A549 (lung carcinoma). In words: CIMA assay (tetrazolium reduction, cell viability, 72 h). The conditions noted are these: A549. How it is done: (§1) Prepared extracts were assessed following chronic exposure conditions in which cells were seeded at 2×10^3 cells/well (96 wells-plate) and incubated with test compounds for 72 h. Each compound was evaluated over a range of concentrations (0, 10, 25, 50 or 100 μg/ml). Cell proliferation was initially assessed using a standard colorimetric indicator of metabolic activity (CIMA) assay. In this assay, tetrazole reduction was evaluated as a measure of metabolic function that evaluates mitochondrial activity to determine the extent of cell proliferation within a culture. This assay is based on the reduction of yellow tetrazolium salt to purple formazan by mitochondrial reductases enzyme in viable cells, resulting in a color change that confers a change in absorbance. Seven human cell lines were selected for primary evaluation: U373 (glioblastoma-astrocytoma), A549 (lung carcinoma), THP-1 (acute monocytic leukemia), MCF7 (mammary gland adenocarcinoma), SKOV3 (ovarian adenocarcinoma), PC3 (prostate adenocarcinoma) and CCD1079SK (fibroblast, noncancerous but proliferating) (see FIG. 2 and Table 2). Results are expressed in Table 2 as % viability (means±standard deviation of three replicates), with LD50/IC50 values in Tables 3 and 6. […] The maximum DMSO concentration was 1% at 100 μg/ml with 5% SDS used as a known toxic inducer.
(§2) Experimental: Stock solutions of the test compounds were prepared in dimethylsulfoxide (DMSO) at 10 mg/ml and stored at −20° C. until used. This preparation ensures that the DMSO content delivered to cells in culture never exceeds 1%. Appropriate cells number, based on previous assays, were seeded in 96 well plate and incubated with test compounds (up to 8 log concentrations, 0 to 50 or 100 μg/ml) for 72 h. Cell proliferation was initially assessed using a standard colorimetric indicator of metabolic activity (CIMA) assay. In this assay, reduction of yellow tetrazolium salt (MTT) to purple formazan by mitochondrial reductases enzymes in viable cells were measured as change in absorbance (λ=500-600).
(§3) Seven human cell lines were evaluated: U373 (glioblastoma-astrocytoma), A549 (lung carcinoma), PC3 (prostate adenocarcinoma), THP1 (acute monocytic leukemia), MDA-MB-231 (mammary gland adenocarcinoma), SKOV3 (ovarian adenocarcinoma) and CCD1079Sk (normal skin fibroblast) cells.

The subject of data set [1] is CCD1079SK (fibroblast, noncancerous but proliferating). The data set is described as above. The conditions noted are these: CCD. Here is the method:
as §1, §2, §3

Data set [2] concerns PC3 (prostate adenocarcinoma). Described as above. The conditions noted are these: PC3. Here is the method:
as §1, §2, §3

Data set [3] deals with SKOV3 (ovarian adenocarcinoma). The description is as above. The conditions noted are these: SKOV. Here is the method: as §1, §2, §3
For data set [4], the system named is THP-1 (acute monocytic leukemia). Described as above. The conditions noted are these: THP-1. Here is the method:
as §1, §2, §3

In data set [5] the test system is U373 (glioblastoma-astrocytoma). Described as above. The conditions noted are these: U373. Here is the method:
as §1, §2, §3

Data set [6] has as its system MDA-MB-231 (mammary gland adenocarcinoma). In words: CIMA assay (MTT, 72 h). As to conditions: MDA-MB. Here is the method: Experimental: Stock solutions of the test compounds were prepared in dimethylsulfoxide (DMSO) at 10 mg/ml and stored at −20° C. until used. This preparation ensures that the DMSO content delivered to cells in culture never exceeds 1%. […] Cell proliferation was initially assessed using a standard colorimetric indicator of metabolic activity (CIMA) assay. In this assay, reduction of yellow tetrazolium salt (MTT) to purple formazan by mitochondrial reductases enzymes in viable cells were measured as change in absorbance (λ=500-600).
as §3

Each structure is given as a SMILES string.

On to `CCCCCC(O)C(O)/C=C/C1CCCCCCCC(=O)O1` (racemic) [compound (I), 12,13-dihydroxy-10-octadecen-9-olide], for which the “fold change viability (AVG)” value with A549 (lung carcinoma) (1 ug/mL) is listed as 1.11; in the data set with A549 (lung carcinoma) (10 ug/mL) it was 1.09; in the data set on A549 (lung carcinoma) (50 ug/mL), 1.08; with A549 (lung carcinoma) (100 ug/mL), 0.72; in data set [1] (1 ug/mL), 1.00; in data set [1] (10 ug/mL) it was 0.92. The “fold change viability (AVG)” value worked out at 0.99 in data set [1] (50 ug/mL); 0.18 in data set [1] (100 ug/mL); 1.03 in data set [2] (1 ug/mL); 0.96 in data set [2] (10 ug/mL); 1.01 in data set [2] (50 ug/mL); 0.19 in data set [2] (100 ug/mL). In addition, the “fold change viability (AVG)” value in data set [3] (1 ug/mL) was 1.04; in data set [3] (10 ug/mL), 1.05; in data set [3] (50 ug/mL), 1.01; in data set [3] (100 ug/mL) it was 0.92; in data set [4] (1 ug/mL), 1.09; in data set [4] (10 ug/mL), 0.95. Further, the “fold change viability (AVG)” value in data set [4] (50 ug/mL) was 0.77; in data set [4] (100 ug/mL), 0.50; in data set [5] (1 ug/mL) it was 0.92; in data set [5] (10 ug/mL), 0.86; in data set [5] (50 ug/mL), 0.69; in data set [5] (100 ug/mL) it was 0.03. The “fold change viability (AVG)” value in data set [6] (1 ug/mL) is recorded as 1.10; in data set [6] (10 ug/mL) it was 1.05; in data set [6] (50 ug/mL), 0.72; in data set [6] (100 ug/mL), 0.21.

For `CCCCCCCCCCCCOS(=O)(=O)[O-].[Na+]` [SDS, reference compound], in data set [6] (positive control, 250 ug/ml), the average cell viability is 14.
